{"source": "patent US20110045103A1", "about": "“METHODS FOR TREATING AIDS” (priority 2009, published 2011)", "key": {"[1]": {"tested_on": "MT-2 cells (human T-cell leukemia cells)", "experiment": "Cytotoxicity control of the virucidal assay", "type": "cell-based", "details": "ten minute exposure", "experimental": "(§1) Test Cultures: MT-2 cells (human T-cell leukemia cells) were obtained through the AIDS Research and Reference Reagent Program, Division of AIDS, NIAID, NIH from Dr. Douglas Richman. Cultures were maintained and used in suspension in tissue culture labware at 36-38° C. in a humidified atmosphere of 5-7% CO2.\nCytotoxicity Control: A 1.80 mL aliquot of the test substance was mixed with a 0.2 mL aliquot of test medium containing the BSA organic soil load, in lieu of virus, and treated as previously described. The cytotoxicity control was held for the ten minute exposure time. […] The cytotoxicity of the MT-2 cell cultures was scored at the same time as virus-test substance and virus control cultures. Cytotoxicity was graded on the basis of cell viability as determined microscopically. […]\nCells in the multiwall culture dishes were inoculated in quadruplicate with 0.2 mL of the dilutions prepared from test and control groups. […] The cultures were scored periodically for eight days for the absence or presence of CPE, cytotoxicity, and for viability.\n(§2) Data analysis: Viral and cytotoxicity titers are expressed as −log 10 of the 50 percent titration endpoint for infectivity (TCID50) or cytotoxicity (TCD50), respectively, as calculated by the method of Spearman Karber: […]"}, "[2]": {"tested_on": "human immunodeficiency virus (HIV) Type I, strain HTLV-IIIB", "experiment": "Virucidal efficacy assay: virus suspension exposed to test composition, then titered by infectivity (CPE) in MT-2 cells", "type": "cell-based, HIV Type 1", "experimental": "Composition Tested: A 20 mL vial of ammonium chloride (100 mEq/5 mL) was dissolved into a 1 liter bag of 0.9% sodium chloride injection USP (9 g/L sodium chloride; osmolarity of 308 mOsmol/L; 154 mEq/L sodium; 154 mEq/L chloride). The contents of the bag were transferred to a sterile glass bottle. The solution was equilibrated to room temperature prior to use.\nVirus: human immunodeficiency virus (HIV) Type I, strain HTLV-IIIB, was obtained from Advanced Biotechnologies, Inc., Columbia, Md. Stock virus was prepared by collecting the supernatant culture fluid from infected culture cells. The cells were disrupted and cell debris removed by centrifugation at approximately 2200 RPM for ten minutes at room temperature. The supernatant was removed, aliquoted, and the high titer stock virus was stored at ≦−70° C. until the day of use. On the day of use, an aliquot of stock virus was removed, thawed, and maintained at a refrigerated temperature until used in the assay. The stock virus culture was adjusted to contain 5% fetal bovine serum as the organic soil lead.\nas §1\nTest Medium: The test medium used for the assay was RPMI 1640 supplemented with 10% (v/v) heat-inactivated fetal bovine serum (FBS). The medium was also supplemented with 2.0 mM L-glutamine and 50 μg/mL gentamicin.\nTreatment of Virus Suspension: A 1.80 mL aliquot of the test substance was dispensed into a sterile tube and mixed with a 0.2 mL aliquot of the stock virus suspension. The mixture was vortex mixed for 10 seconds and held for the remainder of the specified exposure time at 37.0° C. The exposure time was ten minutes. Following the exposure time, a 0.1 mL aliquot was removed from the tube and the mixture was immediately titered by 10-fold serial dilution (0.1 mL+0.9 mL test medium) and assayed for the presence of virus in MT-2 cells. To decrease the test substance cytotoxicity, the first dilution was made in FBS with the remaining dilutions in test medium.\nTreatment of Virus Control: A 0.2 mL aliquot of stock virus suspension was exposed to a 1.80 mL aliquot of test medium, in lieu of test substance, and treated as previously described. Following the exposure time, a 0.1 mL aliquot was removed from the tube and the mixture was immediately titered by 10-fold serial dilution (0.1 mL+0.9 mL test medium) and assayed for the presence of virus in MT-2 cells. All controls employed the FBS neutralizer as described in the Treatment of Virus Suspension section above. The virus control titer was used as a baseline to compare the percent and log reductions of the test parameter following exposure to the test substance.\nCells in the multiwall culture dishes were inoculated in quadruplicate with 0.2 mL of the dilutions prepared from test and control groups. Uninfected indicator cell cultures (cell controls) were inoculated with test medium alone. The cultures were incubated at 36-38° C. in a humidified atmosphere of 5-7% CO2 in sterile disposable cell culture labware. The cultures were scored periodically for eight days for the absence or presence of CPE, cytotoxicity, and for viability.\nas §2\nCalculation of Percent (%) Reduction:\nCalculation of Log Reduction:\nTCID50 of the virus control—TCID50 of the test substance=Log reduction Study Acceptance Criteria: A valid test required the following: (1) that stock virus be recovered from the virus control; (2) that the cell controls be negative for virus; and (3) that negative cultures are viable."}, "[3]": {"details": "ten minute exposure at 37° C., 5% fetal bovine serum, compared to virus control"}}}
{"compound": "Cl.N", "note": "[Ammonium Chloride, ammonium chloride]", "values": [{"measurement": "Test substance cytotoxicity (not observed at any dilution tested)", "setting": "[1]", "result": "≤ 1.5", "unit": "log 10"}, {"measurement": "Presence of test virus, four cultures", "setting": "[2]; dilution 10^-2, after ten minute exposure", "result": "+ + + +"}, {"measurement": "Presence of test virus, four cultures", "setting": "[2]; dilution 10^-3, after ten minute exposure", "result": "+ + + +"}, {"measurement": "Presence of test virus, four cultures", "setting": "[2]; dilution 10^-4, after ten minute exposure", "result": "+ + + +"}, {"measurement": "Log10 Reduction in viral titer", "setting": "[2]; [3]", "result": 1.0, "unit": "Log10"}, {"measurement": "Percent Reduction in viral titer", "setting": "[2]; [3]", "result": 90.0, "unit": "%"}, {"measurement": "Percent Reduction in viral titer", "setting": "[2]; ten minute exposure at 37° C., 5% fetal bovine serum, compared to virus control, listed as ammonium chloride", "result": 90, "unit": "%"}, {"measurement": "test virus infectivity detected in the virus-test substance mixture", "setting": "[2]; ten minute exposure at 37° C., virus control titer 6.0 log 10", "result": 5.0, "unit": "log 10"}]}
